Reference: the NIST ThermoML archive (doi:10.1016/j.tca.2015.09.017)
Numbers after ± are expanded uncertainties.

Details: 101.33 kPa, Liquid, Photoacoustic measurements

| SMILES | thermal diffusivity (298.15 K) | thermal diffusivity (308.15 K) | thermal diffusivity (318.15 K) | thermal diffusivity (328.15 K) | thermal diffusivity (338.15 K) |
| --- | --- | --- | --- | --- | --- |
| OCCO [1,2-ethanediol] | 9.84e-08 ± 3.9e-09 m2/s | 9.73e-08 ± 3.9e-09 m2/s | 9.68e-08 ± 3.9e-09 m2/s | 9.49e-08 ± 3.8e-09 m2/s | 9.42e-08 ± 3.8e-09 m2/s |
| O [water] | 1.49e-07 ± 6e-09 m2/s | 1.53e-07 ± 6e-09 m2/s | 1.56e-07 ± 6e-09 m2/s | 1.59e-07 ± 6e-09 m2/s | 1.61e-07 ± 6e-09 m2/s |
